Measured values as given in patent publication US20150104426A1, “SKIN-CARE AGENT CONTAINING PLEUROTUS FERULAE FRUIT BODY EXTRACT OR PLEUROTUS FERULAE MYCELIUM EXTRACT” (AMI Cosmetic Co., Ltd., priority 2013, published 2015).
Each block holds one molecule with its values, some of them ahead of it.

Tests used:
tyrosinase = experiment: Inhibition of tyrosinase activity; assay type: biochemical, mushrooms; conditions: 0.2 wt %; L-tyrosine substrate
Experimental: Tyrosinase is an enzyme which facilitates oxidation of a substance called “tyrosine” in vivo and aids in production of melanin. Tyrosinase was isolated from mushrooms and purified, and was obtained from Sigma Aldrich Corp. A 0.1 mg/mL solution of L-tyrosine as a substrate in a 0.05 M sodium phosphate buffer solution (pH 6.8) was prepared. […] The test tube containing the reaction solution was quenched in ice to stop the reaction and transmissivity at a wavelength of 475 nm was measured using a spectrophotometer. A group treated with 0.5 mL of a buffer solution, instead of the Pleurotus ferulae fruiting body extract, the Pleurotus ferulae mycelium extract or the Pleurotus ferulae mycelium culture was used as a control group, and arbutin, a well-known whitening agent, was used as a positive control group. In addition, inhibition of tyrosinase activity by the respective samples were calculated in accordance with the following Equation 3. Inhibition of tyrosinase activity (%)=100−[(absorbance of reference group/absorbance of control group)]×100 Equation 3

B16F1 melanin cells = experiment: Inhibition of melanin synthesis in B16F1 melanin cells; assay type: cell-based, mice; conditions: 0.2 wt %; B16F1, 72 hours
Experimental: B16F1 melanocytes used for the present test example were cell lines derived from mice, which secrete a black pigment called “melanin”. The effect on inhibition of melanin synthesis of B16F1 melanin cells was measured as follows. […] After culturing for 72 hours, the cells were removed from trypsin-EDTA, counted and collected by centrifugation. Melanin in cells was assayed using a slightly modified version of Lotan's method (R Lotan and D Lotan, Cancer Res, 40: 3345-3350, 1980). Cell pellets were washed with PBS once and homogenized, 1 mL of a buffer solution (50 mM sodium phosphate, pH 6.8, 1% Triton X-100, 2 mM PMSF) was added to the cells, and the cells were crushed by vortex for 5 minutes. Melanin extracted by addition of 1N NaOH (10% DMSO) to a cell residue obtained by centrifugation (3,000 rpm, 10 minutes) was dissolved, absorbance of melanin at 405 nm was measured using a microplate reader, melanin was assayed, and inhibition of melanin production (%) of the sample was measured. In addition, a group not treated with the Pleurotus ferulae fruiting body extract, the Pleurotus ferulae mycelium extract or the Pleurotus ferulae mycelium culture was used as a control group, arbutin well-known as a whitening agent was used as a positive control group, and inhibition of melanin synthesis (%) by B16F1 melanin cells was calculated in accordance with Equation 4. […]

[1] = Antioxidative effect, DPPH method; assay type: biochemical; conditions: sample 0.1 wt %
Experimental: The DPPH method measures free radical scavenge activity based on reduction power using a free radical, called “DPPH (2,2-di(4-tert-octylphenyl)-1-picrylhydrazyl)”. In the present test example, decrease in absorbance caused by reduction of DPPH by a test substance was compared with an absorbance of a blank test solution, and free radical scavenge rate at a wavelength of 560 nm was measured. Measurement was performed as follows. In addition, BHT, a well-known antioxidant, was used as a positive control group.
0.025, 0.05, 0.1 and 0.25% by weight of different concentrations of the Pleurotus ferulae fruiting body extracts, the Pleurotus ferulae mycelium extracts and the Pleurotus ferulae mycelium cultures were prepared and pipetted into on 96-well plates, and DPPH prepared from a 100 μM methanol solution was added thereto such that the total volume of the solution reached 200 μl. The solution was allowed to stand at 37° C. for 30 minutes, absorbance (St) at 560 nm of the solution was measured and free radical scavenge activity (%) was calculated using the following Equation 2.
Free radical scavenge activity (%)=[…]×100 Equation 2 […]

[2] = Antioxidative effect, NBT method (xanthine/xanthine oxidase); assay type: biochemical; conditions: sample 0.1 wt %
Experimental: In accordance with the NBT method, active oxygen is produced by xanthine and xanthine oxidase, and absorbance at a wavelength of 560 nm of a blue substance produced upon reaction between the active oxygen and nitro blue tetrazolium (NBT) is measured. In the present test example, an active oxygen scavenge rate was measured in accordance with the following method. In addition, BHT, a well-known antioxidant, was used as a positive control group.
2.4 mL of 0.05M sodium carbonate (Na2CO3), 0.1 mL of a 3 mM xanthine solution, 0.1 mL of a 3 mM EDTA solution, 0.1 mL of a BSA solution and 0.1 mL of a 0.72 mM NBT solution were added to vials, 0.025, 0.05, 0.1 and 0.25% by weight of sample solutions were added respectively thereto, followed by allowing to stand at 25° C. for 10 minutes. After standing, 0.1 mL of a xanthine oxidase solution was added to the each solution which was then rapidly stirred and cultured at 25° C. for 20 minutes. 0.1 mL of a 6 mM copper chloride (CuCl2) solution was added to the culture solution to stop the reaction. Absorbance (St) at 560 nm was measured. […] Absorbance (Bt) was measured in the same manner as above. Absorbance (Bo) of the blank of the sample solution was measured in the same manner as above using distilled water instead of the xanthine oxidase solution. In addition, active oxygen scavenge rate (%) was calculated by the following Equation 1. […]

[3] = system: Human keratinocytes HaCaT cell line; experiment: Scavenging of active oxygen in cells after UVB (DCFH-DA); assay type: cell-based; conditions: 0.01 wt %, UVB 20 mJ/cm^2
Experimental: A cell line used for the present test example was a Human keratinocytes HaCaT cell line obtained from Dr. Fusenig in the German Cancer Research Center. The cell line was seeded at a density of 2.0×10^4 cells per well into 96-well black plates for fluorescent measurement and cultured in DMEM (Dulbecco's Modified Eagle's Medium, FBS 10%, Gibco, USA) media containing penicillin and streptomycin at 37° C. in an atmosphere containing 5% CO2 for one day. […] Then, after 100 μl of different concentrates of HCSS was added to the test samples, fluorescence of DCF (dichlorofluorescein) initially oxidized with active oxygen was measured using a fluorescence plate reader (Ex: 485 nm, Em: 530 nm). Then, the samples were irradiated with UVB (20 mJ/cm^2), treated with 0.005, 0.01 and 0.02% by weight of the Pleurotus ferulae fruiting body extract, the Pleurotus ferulae mycelium extract and the Pleurotus ferulae mycelium culture and then measured for fluorescence using the fluorescence plate reader (Ex: 485 nm, Em: 530 nm). At this time, epigallocatechin gallate (EGCG) known to have potent antioxidative effects was used as a positive control group.

[4] = system: matrix metalloproteinase (MMP-1); experiment: Repression of MMP-1 after ultraviolet irradiation (ELISA); assay type: cell-based; conditions: 0.02 wt %; human dermal fibroblasts, UVA 6.3 J/cm^2, 24 hours
Experimental: After UV irradiation and addition of samples (Pleurotus ferulae fruiting body extract, Pleurotus ferulae mycelium extract or Pleurotus ferulae mycelium culture, retinol), enzyme-linked immunosorbent assay (ELISA) was carried out to measure concentration of matrix metalloproteinase (MMP-1). Human dermal fibroblasts were irradiated with UVA at an energy of 6.3 J/cm^2 in a UV chamber, and conditions of the dose of ultraviolet radiation and culture time which maximize expression of matrix metalloproteinase (MMP-1) in fibroblasts were established through preliminary testing. A negative control group was wrapped with a foil and exposed to UVA environment for the same time. Here, UVA dose was measured using a UV radiometer. The cells during irradiation of UVA were cultured in the medium previously used. After UVA irradiation, the cells were cultured in a fresh medium containing samples for 24 hours and the medium were coated on 96-well plates. […] The cells were reacted with anti-mouse IgG (whole mouse, alkaline phosphatase conjugated) as a secondary antibody for about 60 minutes, and an alkaline phosphatase substrate solution (1 mg/mL ρ-nitrophenyl phosphate in diethanolamine buffer solution) at room temperature for 30 minutes, and absorbance at 405 nm was measured using a microplate reader. […]

type 1 procollagen = experiment: Promotion of type 1 procollagen biosynthesis in fibroblasts; assay type: cell-based; conditions: 0.001 wt %; human dermal fibroblasts, 24 hours
Experimental: Human dermal fibroblasts isolated from infant epidermal tissues were obtained from Modern Tissue Technology (MTT, Korea) and cultured at 1×10^4 cell/cm2 in a DMEM/F-12 (3:1) medium containing 10% fetal bovine serum (FBS). The human dermal fibroblasts grown to about a confluence of 80% were sub-cultured at a split ratio of 1:3 four times and were then used for the testing.
For the test to measure the amount of procollagen, fibroblasts were cultured to a confluence of 90% or more on a 48-well plate, the Pleurotus ferulae fruiting body extract, the Pleurotus ferulae mycelium […], and after 24 hours, the amount of procollagen released in the medium was measured using a procollagen type-1C-peptide EIA kit (MK101, Takara, Japan). In addition, TGF-β was used as a positive control group.

Inhibition of tyrosinase activity (%) (tyrosinase): 54%
Molecule: OC[C@H]1O[C@@H](Oc2ccc(O)cc2)[C@H](O)[C@@H](O)[C@@H]1O [Arbutin, arbutin]
Inhibition of melanin synthesis (%) (B16F1 melanin cells): 55%

Molecule: Cc1cc(C(C)(C)C)c(O)c(C(C)(C)C)c1 [BHT]
Free radical scavenge rate (antioxidative effect, %) [1]: 85%
Active oxygen scavenge rate (antioxidative effect, %) [2]: 89%

Molecule: O=C(O[C@@H]1Cc2c(O)cc(O)cc2O[C@@H]1c1cc(O)c(O)c(O)c1)c1cc(O)c(O)c(O)c1 [EGCG, epigallocatechin gallate]
Effect of scavenging active oxygen (%) [3]: 45%

Molecule: CC1=C(/C=C/C(C)=C/C=C/C(C)=C/CO)C(C)(C)CCC1 [Retinol, retinol]
Repression of MMP-1 (%) [4]: 36%

Molecule: TGF-β
Promotion of procollagen biosynthesis (%) (type 1 procollagen): 125%
